# Where a name gives a salt, the structure may show the parent alone.
# System: Acinetobacter baumannii ATCC17961
# Experiment: Antimicrobial susceptibility testing: 90% growth inhibitory concentration (IC90) determination
# Assay type: cell-based
# Settings: 90% growth inhibitory concentration against Acinetobacter baumannii ATCC17961, Iso-Sensitest broth, OD 600 nm over 16 h; read-out: ATCC 17961 IC90
# Procedure, shortened: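 OD600 monitored each minute over 16 h at 35±2° C for bacteria (~5×10^5 CFU/mL final) in Iso-Sensitest medium with 10-point twofold compound series (e.g. 10-0.0195 μM final). Concentration giving 90% growth inhibition in log phase reported as IC90.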
row,IC90,SMILES
1,720 nM,"Cn1c(-c2cn(-c3ccc(N)cn3)nc2C(F)(F)F)cnc1C(=O)Nc1ccc(C(=O)N2CCN(C(=O)CCC[N+](CCCN)(CCCN)CC(=O)O)CC2)c(Cl)c1 [Example 66, bis(3-aminopropyl)-[4-[4-[4-[[5-[1-(5-amino-2-pyridyl)-3-(trifluoromethyl)pyrazol-4-yl]-1-methyl-imidazole-2-carbonyl]amino]-2-chloro-benzoyl]piperazino]-4-keto-butyl]-(carboxymethyl)ammonium. 1:1 2,2,2-trifluoroacetate]"
2,870 nM,"Cn1c(-c2cn(-c3ccc(NCCN)cn3)nc2C(F)(F)F)cnc1C(=O)Nc1ccc(C(=O)N2CCN(C(=O)[C@H]3CC[N@+](CC(=O)O)(CC4CNC4)CC3)CC2)c(Cl)c1 [Example 73, cis-2-[4-[4-[4-[[5-[1-[5-(2-aminoethylamino)-2-pyridyl]-3-(trifluoromethyl)pyrazol-4-yl]-1-methyl-imidazole-2-carbonyl]amino]-2-chloro-benzoyl]piperazine-1-carbonyl]-1-(azetidin-3-ylmethyl)piperidin-1-ium-1-yl]acetic acid; formic acid; formate]"

# Same assay, conditions: Acinetobacter baumannii, ATCC17961, 16 h, 90% growth inhibitory concentration against Acinetobacter baumannii ATCC17961, Iso-Sensitest broth, OD 600 nm over 16 h; read-out: ATCC 17961 IC90
row,SMILES,IC90
1,"Cn1c(-c2cn(-c3ccc(N)cn3)nc2C(F)(F)F)cnc1C(=O)Nc1ccc(C(=O)N2CCN(C(=O)C3CC[N+](CC(=O)O)(CC4CNC4)CC3)CC2)c(Cl)c1 (centres unmarked) [Example 59, 2-[4-[4-[4-[[5-[1-(5-amino-2-pyridyl)-3-(trifluoromethyl)pyrazol-4-yl]-1-methyl-imidazole-2-carbonyl]amino]-2-chloro-benzoyl]piperazine-1-carbonyl]-1-(azetidin-3-ylmethyl)piperidin-1-ium-1-yl]acetic acid. 1:1 formate]",650 nM
2,"Cn1c(-c2cn(-c3n[nH]c4ccccc34)nc2C(F)(F)F)cnc1C(=O)Nc1ccc(C(=O)N2CCN(C(=O)C3CC[N+](CC(=O)O)(CC4CNC4)CC3)CC2)c(Cl)c1 (centres unmarked) [Example 62, 2-[1-(azetidin-3-ylmethyl)-4-[4-[2-chloro-4-[[5-[1-(1H-indazol-3-yl)-3-(trifluoromethyl)pyrazol-4-yl]-1-methyl-imidazole-2-carbonyl]amino]benzoyl]piperazine-1-carbonyl]piperidin-1-ium-1-yl]acetic acid;formate]",680 nM
3,"Cn1c(-c2cn(-c3ccc4occc4n3)nc2C(F)(F)F)cnc1C(=O)Nc1ccc(C(=O)N2CCN(C(=O)C3CC[N+](CC(=O)O)(CC4CNC4)CC3)CC2)c(Cl)c1 (centres unmarked) [Example 63, 2-[1-(azetidin-3-ylmethyl)-4-[4-[2-chloro-4-[[5-[1-furo[3,2-b]pyridin-5-yl-3-(trifluoromethyl)pyrazol-4-yl]-1-methyl-imidazole-2-carbonyl]amino]benzoyl]piperazine-1-carbonyl]piperidin-1-ium-1-yl]acetic acid. 1:1 2,2,2-trifluoroacetate]",680 nM
4,"Cn1c(-c2cn(-c3ccc(N)cn3)nc2C(F)(F)F)cnc1C(=O)Nc1ccc(C(=O)N2CCN(C(=O)CCCN(CCCN)CC(=O)O)CC2)c(Cl)c1 [Example 72, 2-[3-aminopropyl-[4-[4-[4-[[5-[1-(5-amino-2-pyridyl)-3-(trifluoromethyl)pyrazol-4-yl]-1-methyl-imidazole-2-carbonyl]amino]-2-chloro-benzoyl]piperazino]-4-keto-butyl]amino]acetic acid. 1:1 2,2,2-trifluoroacetic acid]",870 nM
5,"Cn1c(-c2cn(-c3ccnc(N)c3)nc2C(F)(F)F)cnc1C(=O)Nc1ccc(C(=O)N2CCN(C(=O)C3CC[N+](CC(=O)O)(CC4CNC4)CC3)CC2)c(Cl)c1 (centres unmarked) [Example 74, 2-[4-[4-[4-[[5-[1-(2-amino-4-pyridyl)-3-(trifluoromethyl)pyrazol-4-yl]-1-methyl-imidazole-2-carbonyl]amino]-2-chloro-benzoyl]piperazine-1-carbonyl]-1-(azetidin-3-ylmethyl)piperidin-1-ium-1-yl]acetic acid. 1:1 2,2,2-trifluoroacetate]",940 nM

# Now from value to molecule:
row,IC90,SMILES
1,660 nM,"Cn1c(-c2cn(-c3ccc(N)cn3)nc2C(F)(F)F)cnc1C(=O)Nc1ccc(C(=O)N2CCN(C(=O)C3CC[N+](CCCC(=O)O)(CC4CNC4)CC3)CC2)c(Cl)c1 (centres unmarked) [Example 60, 4-[4-[4-[4-[[5-[1-(5-amino-2-pyridyl)-3-(trifluoromethyl)pyrazol-4-yl]-1-methyl-imidazole-2-carbonyl]amino]-2-chloro-benzoyl]piperazine-1-carbonyl]-1-(azetidin-3-ylmethyl)piperidin-1-ium-1-yl]butyric acid. 1:1 2,2,2-trifluoroacetate]"
2,670 nM,"Cn1c(-c2cn(-c3ccc4c(n3)CCN4)nc2C(F)(F)F)cnc1C(=O)Nc1ccc(C(=O)N2CCN(C(=O)C3CC[N+](CC(=O)O)(CC4CNC4)CC3)CC2)c(Cl)c1 (centres unmarked) [Example 61, 2-[1-(azetidin-3-ylmethyl)-4-[4-[2-chloro-4-[[5-[1-(2,3-dihydro-1H-pyrrolo[3,2-b]pyridin-5-yl)-3-(trifluoromethyl)pyrazol-4-yl]-1-methyl-imidazole-2-carbonyl]amino]benzoyl]piperazine-1-carbonyl]piperidin-1-ium-1-yl]acetic acid. 1:1 2,2,2-trifluoroacetate]"
3,680 nM,"Cn1c(-c2cn(-c3ccc(N)cn3)nc2C(F)(F)F)cnc1C(=O)Nc1ccc(C(=O)N2CCN(C(=O)[C@H]3CC[N@@+](CC(=O)O)(CC4CNC4)CC3)CC2)c(Cl)c1 [Example 64, trans-2-[4-[4-[4-[[5-[1-(5-amino-2-pyridyl)-3-(trifluoromethyl)pyrazol-4-yl]-1-methyl-imidazole-2-carbonyl]amino]-2-chloro-benzoyl]piperazine-1-carbonyl]-1-(azetidin-3-ylmethyl)piperidin-1-ium-1-yl]acetic acid. 1:1 2,2,2-trifluoroacetic acid. 1:1 2,2,2-trifluoroacetate]"
4,720 nM,"Cn1c(-c2cn(-c3ccc(N)c(N)n3)nc2C(F)(F)F)cnc1C(=O)Nc1ccc(C(=O)N2CCN(C(=O)C3CC[N+](CC(=O)O)(CC4CNC4)CC3)CC2)c(Cl)c1 (centres unmarked) [Example 67, 2-[1-(azetidin-3-ylmethyl)-4-[4-[2-chloro-4-[[5-[1-(5,6-diamino-2-pyridyl)-3-(trifluoromethyl)pyrazol-4-yl]-1-methyl-imidazole-2-carbonyl]amino]benzoyl]piperazine-1-carbonyl]piperidin-1-ium-1-yl]acetic acid. 1:1 2,2,2-trifluoroacetate]"
5,760 nM,"CNc1ccc(-n2cc(-c3cnc(C(=O)Nc4ccc(C(=O)N5CCN(C(=O)C6CC[N+](CC(=O)O)(CC7CNC7)CC6)CC5)c(Cl)c4)n3C)c(C(F)(F)F)n2)cn1 (centres unmarked) [Example 68, 2-[1-(azetidin-3-ylmethyl)-4-[4-[2-chloro-4-[[1-methyl-5-[1-[6-(methylamino)-3-pyridyl]-3-(trifluoromethyl)pyrazol-4-yl]imidazole-2-carbonyl]amino]benzoyl]piperazine-1-carbonyl]piperidin-1-ium-1-yl]acetic acid. 1:1 2,2,2-trifluoroacetate]"
6,790 nM,"Cn1c(-c2cn(-c3ccc(NC4CCC4)cn3)nc2C(F)(F)F)cnc1C(=O)Nc1ccc(C(=O)N2CCN(C(=O)C3CC[N+](CC(=O)O)(CC4CNC4)CC3)CC2)c(Cl)c1 (centres unmarked) [Example 69, 2-[1-(azetidin-3-ylmethyl)-4-[4-[2-chloro-4-[[5-[1-[5-(cyclobutylamino)-2-pyridyl]-3-(trifluoromethyl)pyrazol-4-yl]-1-methyl-imidazole-2-carbonyl]amino]benzoyl]piperazine-1-carbonyl]piperidin-1-ium-1-yl]acetic acid. 1:1 formate]"
7,850 nM,"Cn1c(-c2cn(-c3ccc(N)cn3)nc2C(F)(F)F)cnc1C(=O)Nc1ccc(C(=O)N2CCN(C(=O)NCCCc3cc[n+](CC(=O)O)c(CCCN)c3)CC2)c(Cl)c1 [Example 70, 2-[2-(3-Aminopropyl)-4-[3-[[4-[4-[[5-[1-(5-amino-2-pyridyl)-3-(trifluoromethyl)pyrazol-4-yl]-1-methyl-imidazole-2-carbonyl]amino]-2-chloro-benzoyl]piperazine-1-carbonyl]amino]propyl]pyridin-1-ium-1-yl]acetic Acid.1:1 2,2,2-trifluoroacetic Acid.1:1 2,2,2-trifluoroacetate]"
8,860 nM,"Cn1c(-c2cn(-c3cc(N)ccn3)nc2C(F)(F)F)cnc1C(=O)Nc1ccc(C(=O)N2CCN(C(=O)C3CC[N+](CC(=O)O)(CC4CNC4)CC3)CC2)c(Cl)c1 (centres unmarked) [Example 71, 2-[4-[4-[4-[[5-[1-(4-amino-2-pyridyl)-3-(trifluoromethyl)pyrazol-4-yl]-1-methyl-imidazole-2-carbonyl]amino]-2-chloro-benzoyl]piperazine-1-carbonyl]-1-(azetidin-3-ylmethyl)piperidin-1-ium-1-yl]acetic acid. 1:1 2,2,2-trifluoroacetate]"
9,950 nM,"Cn1c(-c2cn(-c3ccc(N)cn3)nc2C(F)(F)F)cnc1C(=O)Nc1ccc(C(=O)N2CCC(C(=O)N3CC[N+](CCCN)(CC(=O)O)CC3)CC2)c(Cl)c1 [Example 75, 2-[1-(3-aminopropyl)-4-[1-[4-[[5-[1-(5-amino-2-pyridyl)-3-(trifluoromethyl)pyrazol-4-yl]-1-methyl-imidazole-2-carbonyl]amino]-2-chloro-benzoyl]piperidine-4-carbonyl]piperazin-1-ium-1-yl]acetic acid. 1:1 2,2,2-trifluoroacetate]"
10,1030 nM,"Cn1c(-c2cn(-c3ccc(C#N)cn3)nc2C(F)(F)F)cnc1C(=O)Nc1ccc(C(=O)N2CCN(C(=O)C3CC[N+](CC(=O)O)(CC4CNC4)CC3)CC2)c(Cl)c1 (centres unmarked) [Example 76, 2-[1-(azetidin-3-ylmethyl)-4-[4-[2-chloro-4-[[5-[1-(5-cyano-2-pyridyl)-3-(trifluoromethyl)pyrazol-4-yl]-1-methyl-imidazole-2-carbonyl]amino]benzoyl]piperazine-1-carbonyl]piperidin-1-ium-1-yl]acetic acid. 1:1 formate]"

# From patent US20250179066A1, “ZWITTERIONIC ANTIBACTERIAL COMPOUNDS” (Hoffmann-La Roche Inc., priority 2022, published 2025)
